Data from patent US10316017B2, “COT modulators and methods of use thereof” (Gilead Sciences, Inc., priority 2015, dated 2019).

Key:
[1] = molecular target: T1, human Cot catalytic domain (30-397 amino acids) (Homo sapiens, UniProt P41279); assay: High Throughput Cot Biochemical Assay (KinEASE TR-FRET); details: Cot biochemical HTRF (KinEASE TR-FRET) assay; read-out: IC50 HTRF
T1 construct: Purified recombinant human Cot catalytic domain (30-397 amino acids) was purchased from Cama Biosciences; purchased Cama Biosciences (so in the source)
In short: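 Phosphorylation of 1 μM XL665-STK3 peptide by 5 nM Cot catalytic domain was measured by time-resolved FRET using a europium […] antibody. ATP was 400 μM; buffer was 10 mM MOPS pH 7.0 with Mg2+ and DTT.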

[2] = system: TNFα production in LPS-stimulated human monocytes; assay: Cot Monocyte TNFα Cell Based Assay; details: Homo sapiens, Monocyte, TNFα in LPS-stimulated human monocytes; read-out: EC50 TNF
In short: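 Percent-of-control values derive from TR-FRET ratios of TNFα in spun-down media, referenced to unstimulated and LPS-stimulated wells. Exposure: 1 h compound preincubation, then 50 pg/ml LPS for 4 h, both at 37 °C, with 0.5% final DMSO.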

T1 sequence (P41279 30-397): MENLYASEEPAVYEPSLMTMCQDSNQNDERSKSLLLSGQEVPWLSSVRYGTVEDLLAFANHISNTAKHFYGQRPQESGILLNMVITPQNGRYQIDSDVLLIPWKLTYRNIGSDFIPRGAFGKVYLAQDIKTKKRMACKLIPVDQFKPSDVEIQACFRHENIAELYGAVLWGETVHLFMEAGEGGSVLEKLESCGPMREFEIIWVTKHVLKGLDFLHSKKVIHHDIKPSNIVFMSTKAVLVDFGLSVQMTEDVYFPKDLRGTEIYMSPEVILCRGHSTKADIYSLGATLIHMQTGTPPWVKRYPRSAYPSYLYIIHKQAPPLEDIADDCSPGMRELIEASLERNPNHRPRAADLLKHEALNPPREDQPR

SMILES	IC50 [1]	EC50 [2]
N#Cc1cnc2c(Cl)cc(N[C@@H](c3ccccc3)c3cn([C@@H]4CCNC[C@@H]4F)nn3)cc2c1Nc1ccc(F)c(Cl)c1 [Example 685, 8-chloro-4-((3-chloro-4-fluorophenyl)amino)-6-(((S)-(1-((3S,4R)-3-fluoropiperidin-4-yl)-1H-1,2,3-triazol-4-yl)(phenyl)methyl)amino) quinoline-3-carbonitrile]	16 nM	359 nM
CC(C)(C)N1CCC(n2cc([C@@H](Nc3cc(Cl)c4ncc(C#N)c(Nc5ccc6c(cnn6Cc6ccccc6)c5)c4c3)c3ccc(Cl)cc3)nn2)CC1 [Example 686, (S)-4-((1-benzyl-1H-indazol-5-yl)amino)-6-(((1-(1-(tert-butyl)piperidin-4-yl)-1H-1,2,3-triazol-4-yl)(4-chlorophenyl)methyl)amino)-8-chloroquinoline-3-carbonitrile]	7240 nM	5900 nM
Cc1c(Cl)cccc1Nc1c(C#N)cnc2c(Cl)cc(N[C@@H](c3ccc(Cl)cc3)c3cn(C4CCN(C(C)(C)C)CC4)nn3)cc12 [Example 687, (S)-6-(((1-(1-(tert-butyl)piperidin-4-yl)-1H-1,2,3-triazol-4-yl)(4-chlorophenyl)methyl)amino)-8-chloro-4-((3-chloro-2-methylphenyl)amino)quinoline-3-carbonitrile]	40 nM	2830 nM
N#Cc1cnc2c(Cl)cc(N[C@@H](c3ccc(Cl)cc3)c3c[nH]nn3)cc2c1Nc1ccc(Cl)c(Cl)c1 [Example 688, (S)-8-chloro-6-(((4-chlorophenyl)(1H-1,2,3-triazol-4-yl)methyl)amino)-4-((3,4-dichlorophenyl)amino)quinoline-3-carbonitrile]	621 nM	1250 nM
CC(C)(C)N1CCC(n2cc([C@@H](Nc3cc(C#N)c4ncc(C#N)c(Nc5ccc(F)c(Cl)c5)c4c3)c3ccc(Cl)cc3)nn2)CC1 [Example 689, (S)-6-(((1-(1-(tert-butyl)piperidin-4-yl)-1H-1,2,3-triazol-4-yl)(4-chlorophenyl)methyl)amino)-4-((3-chloro-4-fluorophenyl)amino)quinoline-3,8-dicarbonitrile]	11 nM	343 nM
CNC(=O)c1cccc([C@H](Nc2cc(Cl)c3ncc(C#N)c(Nc4ccc(F)c(Cl)c4)c3c2)c2cn(C3CCN(C(C)(C)C)CC3)nn2)c1 [Example 690, (S)-3-((1-(1-(tert-butyl)piperidin-4-yl)-1H-1,2,3-triazol-4-yl)((8-chloro-4-((3-chloro-4-fluorophenyl)amino)-3-cyanoquinolin-6-yl)amino)methyl)-N-methylbenzamide]	2 nM	317 nM
CC(C)(C)N1CCC(n2cc([C@@H](Nc3cc(Cl)c4ncc(C#N)c(Nc5ccc(F)c(Cl)c5)c4c3)c3cccc(C(=O)N4CCCC4)c3)nn2)CC1 [Example 691, (S)-6-(((1-(1-(tert-butyl)piperidin-4-yl)-1H-1,2,3-triazol-4-yl)(3-(pyrrolidine-1-carbonyl)phenyl)methyl)amino)-8-chloro-4-((3-chloro-4-fluorophenyl)amino)quinoline-3-carbonitrile]	2 nM	90 nM
CC(C)(C)N1CCC(n2cc([C@@H](Nc3cc(Cl)c4ncc(C#N)c(Nc5cncc(Cl)c5)c4c3)c3ccc(Cl)cc3)nn2)CC1 [Example 692, (S)-6-(((1-(1-(tert-butyl)piperidin-4-yl)-1H-1,2,3-triazol-4-yl)(4-chlorophenyl)methyl)amino)-8-chloro-4-((5-chloropyridin-3-yl)amino)quinoline-3-carbonitrile]	51 nM	797 nM
CC(C)(C)N1CCC(n2cc([C@@H](Nc3cc(Cl)c4ncc(C#N)c(Nc5cc(Cl)c(F)cc5F)c4c3)c3ccc(Cl)cc3)nn2)CC1 [Example 693, (S)-6-(((1-(1-(tert-butyl)piperidin-4-yl)-1H-1,2,3-triazol-4-yl)(4-chlorophenyl)methyl)amino)-8-chloro-4-((5-chloro-2,4-difluorophenyl)amino)quinoline-3-carbonitrile]	46 nM	1540 nM
CC(C)(C)N1CCC(n2cc([C@@H](Nc3cc(Cl)c4ncc(C#N)c(Nc5c(F)ccc(Cl)c5F)c4c3)c3ccc(Cl)cc3)nn2)CC1 [Example 694, (S)-6-(((1-(1-(tert-butyl)piperidin-4-yl)-1H-1,2,3-triazol-4-yl)(4-chlorophenyl)methyl)amino)-8-chloro-4-((3-chloro-2,6-difluorophenyl)amino)quinoline-3-carbonitrile]	20 nM	843 nM

Second part, the molecule after the results:

IC50 [1]	EC50 [2]	SMILES
19 nM	434 nM	CC(C)(C)N1CCC(n2cc([C@@H](Nc3cc(Cl)c4ncc(C#N)c(Nc5ccc(F)c(Cl)c5F)c4c3)c3ccc(Cl)cc3)nn2)CC1 [Example 695, (S)-6-(((1-(1-(tert-butyl)piperidin-4-yl)-1H-1,2,3-triazol-4-yl)(4-chlorophenyl)methyl)amino)-8-chloro-4-((3-chloro-2,4-difluorophenyl)amino)quinoline-3-carbonitrile]
85 nM	3290 nM	CC(C)(C)N1CCC(n2cc([C@@H](Nc3cc(Cl)c4ncc(C#N)c(Nc5cc(F)cc(Cl)c5)c4c3)c3ccc(Cl)cc3)nn2)CC1 [Example 696, (S)-6-(((1-(1-(tert-butyl)piperidin-4-yl)-1H-1,2,3-triazol-4-yl)(4-chlorophenyl)methyl)amino)-8-chloro-4-((3-chloro-5-fluorophenyl)amino)quinoline-3-carbonitrile]
> 10000 nM	17100 nM	CC(Nc1c(C#N)cnc2c(Cl)cc(N[C@@H](c3ccc(Cl)cc3)c3cn(C4CCN(C(C)(C)C)CC4)nn3)cc12)c1ccccn1 (stereo partly drawn) [Example 697, 6-(((S)-(1-(1-(tert-butyl)piperidin-4-yl)-1H-1,2,3-triazol-4-yl)(4-chlorophenyl)methyl)amino)-8-chloro-4-((1-(pyridin-2-yl)ethyl)amino)quinoline-3-carbonitrile]
317 nM	16100 nM	CC(C)(C)N1CCC(n2cc([C@@H](Nc3cc(Cl)c4ncc(C#N)c(NCC5CC5)c4c3)c3ccc(Cl)cc3)nn2)CC1 [Example 698, (S)-6-(((1-(1-(tert-butyl)piperidin-4-yl)-1H-1,2,3-triazol-4-yl)(4-chlorophenyl)methyl)amino)-8-chloro-4-((cyclopropylmethyl)amino) quinoline-3-carbonitrile]
379 nM	10600 nM	CC(Nc1c(C#N)cnc2c(Cl)cc(N[C@@H](c3ccc(Cl)cc3)c3cn(C4CCN(C(C)(C)C)CC4)nn3)cc12)c1cccnc1 (stereo partly drawn) [Example 699, 6-(((S)-(1-(1-(tert-butyl)piperidin-4-yl)-1H-1,2,3-triazol-4-yl)(4-chlorophenyl)methyl)amino)-8-chloro-4-((1-(pyridin-3-yl)ethyl)amino)quinoline-3-carbonitrile]
444 nM	2240 nM	N#Cc1cnc2c(Cl)cc(N[C@@H](c3ccc(Cl)cc3)c3cn(C4CCN(C5COC5)CC4)nn3)cc2c1Nc1ccc(O)c(Cl)c1 [Example 700, (S)-8-chloro-4-((3-chloro-4-hydroxyphenyl)amino)-6-(((4-chlorophenyl)(1-(1-(oxetan-3-yl)piperidin-4-yl)-1H-1,2,3-triazol-4-yl)methyl)amino) quinoline-3-carbonitrile]
48 nM	795 nM	CC(C)(C)N1CCC(n2cc([C@@H](Nc3cc(Cl)c4ncc(C#N)c(Nc5ccc(O)c(Cl)c5)c4c3)c3ccc(Cl)cc3)nn2)CC1 [Example 701, (S)-6-(((1-(1-(tert-butyl)piperidin-4-yl)-1H-1,2,3-triazol-4-yl)(4-chlorophenyl)methyl)amino)-8-chloro-4-((3-chloro-4-hydroxyphenyl)amino) quinoline-3-carbonitrile]
314 nM	17600 nM	CC(C)(C)N1CCC(n2cc([C@@H](Nc3cc(Cl)c4ncc(C#N)c(NC5CCC5)c4c3)c3ccc(Cl)cc3)nn2)CC1 [Example 702, (S)-6-(((1-(1-(tert-butyl)piperidin-4-yl)-1H-1,2,3-triazol-4-yl)(4-chlorophenyl)methyl)amino)-8-chloro-4-(cyclobutylamino)quinoline-3-carbonitrile]
95 nM	12000 nM	CC(C)(C)N1CCC(n2cc([C@@H](Nc3cc(Cl)c4ncc(C#N)c(NCCc5ccccc5)c4c3)c3ccc(Cl)cc3)nn2)CC1 [Example 703, (S)-6-(((1-(1-(tert-butyl)piperidin-4-yl)-1H-1,2,3-triazol-4-yl)(4-chlorophenyl)methyl)amino)-8-chloro-4-(phenethylamino)quinoline-3-carbonitrile]
37 nM	3510 nM	C[C@@H](Nc1c(C#N)cnc2c(Cl)cc(N[C@@H](c3ccc(Cl)cc3)c3cn(C4CCN(C(C)(C)C)CC4)nn3)cc12)c1ccccc1 [Example 704, 6-(((S)-(1-(1-(tert-butyl)piperidin-4-yl)-1H-1,2,3-triazol-4-yl)(4-chlorophenyl)methyl)amino)-8-chloro-4-(((R)-1-phenylethyl)amino)quinoline-3-carbonitrile]
2830 nM	12200 nM	C[C@H](Nc1c(C#N)cnc2c(Cl)cc(N[C@@H](c3ccc(Cl)cc3)c3cn(C4CCN(C(C)(C)C)CC4)nn3)cc12)c1ccccc1 [Example 705, 6-(((S)-(1-(1-(tert-butyl)piperidin-4-yl)-1H-1,2,3-triazol-4-yl)(4-chlorophenyl)methyl)amino)-8-chloro-4-(((S)-1-phenylethyl)amino)quinoline-3-carbonitrile]
